According to patent US20250308265A1, “METHODS AND SYSTEMS FOR CHARACTERIZING MORPHODYNAMIC PROFILES OF OBJECTS” (The Chancellor, Masters and Scholars of the University of …, priority 2022, published 2025):
Like-named read-outs stand apart in the source and are kept apart here.

Columns and labels:
[1] = tested on: normal patient-derived duodenal organoids; experiment: Chemotherapy drug toxicity screen with human duodenum organoids, label-free timelapse imaging analysed by SPOT; conditions: for phenotype cluster frequency over time (stacked barplots): 5 days
Description: Organoids were plated onto 96 well plates as follows. Using ice-cold PBS, the organoids were retrieved from the Matrigel and briefly microcentrifuged. To aid organoid dissociation, the pellet was vigorously resuspended in Trypsin and incubated at 37° C. for 10 min to ensure a high degree of dissociation. The organoid fragments were then briefly microcentrifuged and resuspended in 200 μL of Matrigel. The resuspended organoids were then kept on ice to prevent gelation of the Matrigel. Then, 2 μL of the organoid suspension was seeded inside each well. During this process, the organoid-Matrigel mix was resuspended every 12 wells to ensure an even mix. The Matrigel was allowed to gelate at room temperature for 5 min. Once the Matrigel solidified, 100 μL of human organoid medium, pre-warmed at 37° C. to prevent the detachment of the Matrigel, was then overlaid and replaced every 2 days. Once the organoids had grown for 6 days inside the 96-well plate, the medium was removed by inversion and washed with pre-warmed PBS at 37° C. After removing the PBS by inversion, the wells were filled with 100 μL of human organoid medium (HOM) with a titration of chemotherapy drugs. […] These concentrations were based on the previously published screening concentrations (van de Wetering, M. et al. Cell 161, 933-945 (2015)). All drugs were solubilized and diluted with DMSO. The different conditions were filmed on a Nikon microscope for 120 h at a frequency of 1 image per hour with a 2× objective.
Human duodenum organoids were harvested and dissociated into single cells following the passaging procedure described above. Cell pellets were resuspended in 500 μL of PBS. Cells were filtered through the cell strainer (70 μm) and counted with the automated cell counter (BIO-RAD). The appropriate cell dilutions were made in GFR Matrigel. Then, the cells were seeded in a pre-warmed 96-well black tissue culture-treated (TC-treated) sterile microplate (PerkinElmer), and plates were incubated for 10 min in a cell culture incubator at 37° C. and 5% CO2 to solidify the Matrigel. Human duodenum organoid culture media (HOM, Table 9) was added to each well (200 μL) and refreshed every other day. For WNT experiments, before performing timelapse video collection, the HOM media was changed to ENR (EGF, Noggin, R-spondin only) for the ENR imaging conditions. Specifically, group HOM organoids were cultured in HOM culture medium for 14 days. Group ENR+WNT3A (day 3) organoids were under ENR treatment for 3 days and then ENR+Wnt3A for 11 days. Group ENR+WNT3A (day 6) organoids were under ENR treatment for 6 days and then ENR+Wnt3a for the next 8 days. Group ENR+Wnt3A (day 9) organoids were under ENR treatment for 9 days and then under ENR+Wnt3A treatment for 5 days. Group ENR organoids were under ENR treatment for 14 days. All images were acquired using a Nikon TE 2000-E Eclipse inverted microscope, with a 10×/0.3 NA Plan Fluor Ph1 objective. The system was maintained at 37° C. in the presence of 5% CO2. Z-stack images 1000 μm in depth were acquired at 100 μm intervals (11 steps per acquisition) approximately every 60 min for 5 days (chemotherapy drug screen) and 14 days (WNT addition experiments).
Multicellular structures, such as organoids, have emerged as attractive experimental models. Further, the complex spatiotemporal dynamics of organoids are underlined by the cells' genetic makeup, cell/cell interactions, and the constituent cells' responses to environmental perturbations. SPOT's potential was therefore tested to measure the spatiotemporal dynamics of organoids using normal patient-derived duodenal organoids grown in a 96-well plate and imaged label-free. The entire SPOT workflow was applied to measure organoid response to eight chemotherapy drugs at three different concentrations. 60-100 organoids were seeded per well, and all organoids were filmed every hour for 5 days (stage 1).

[2] = tested on: human duodenum organoids; experiment: Delayed WNT3A restoration to ENR-cultured human duodenum organoids, timelapse imaging analysed by SPOT; assay type: cell-based
Description: Cell pellets were resuspended in 500 μL of PBS. […] The appropriate cell dilutions were made in GFR Matrigel.
The observed flattening phenotype is visually reminiscent of Apc^min/+ murine colon organoids. However, the role of WNT on the morphodynamic changes of human organoids was unexpected. Whereas Apc^min/+ organoids should have high WNT signaling, ENR medium lacks WNT. To test the direct impact of WNT on the morphological changes of human duodenum organoids, WNT3A, a potent inducer of WNT signaling, was added to the ENR medium at day 3, 6, and 9 after the initial transfer of human duodenum organoids to ENR. […] To quantify the impact of WNT3A restoration, all organoids were grown in 96-well plates for 7 days, and live-cell images were captured every hour for the next 14 days (FIG. 5c). The spatiotemporal dynamics of a library of >500,000 segmented organoid instances over all timepoints and videos were analyzed by SPOT in the same manner as mouse colon organoids, and the organoids were subsequently classified into one of 7 phenotype clusters. Quantifying the expression of representative SAM features, as expected, organoids cultured in HOM were large and spherical, shown by enriched distribution of yellow cluster 6.

[3] = tested on: human duodenum organoids; experiment: scRNA-seq of human duodenum organoids (HOM, ENR, ENR+WNT3A); assay type: cell-based; conditions: restoring WNT3A
From the text: Organoids were individually seeded onto a 24-well plate and cultured for 7 days before treatment as described above.
For scRNA-seq, Group HOM was collected after the initial 7 days' culture before further treatment, that is day 0 of the timelapse acquisition. […] Group ENR organoids were under ENR treatment for a total of 3, 6, and 9 days, respectively, then collected. After being harvested, the organoids were processed in the same manner as for murine organoids.
To understand the molecular basis of WNT depletion-induced morphodynamic changes, scRNA-seq was also performed on the human duodenum organoids cultured under conditions and timescales identical to those used for the SPOT analysis. In total, 8763 single cell transcriptomes were generated. […] Examining the expression of WNT, YAP targets, fetal and RSC signatures in organoid-derived cells as a function of the time of WNT3A rescue, it is evident that there is an inverse association between high WNT and high YAP target-expressing cells. Also, the kinetics of RSC signature expression levels coincide with the extent of phenotypic changes detected by SPOT. Thus, WNT-deprived ENR medium induces RSCs that lead to the development of morphologically irregular and flattened organoids.

Molecule: CC(=O)O[C@@]12CO[C@@H]1C[C@H](O)[C@@]1(C)C(=O)[C@H](O)C3=C(C)[C@@H](OC(=O)[C@H](O)[C@@H](NC(=O)OC(C)(C)C)c4ccccc4)C[C@@](O)([C@@H](OC(=O)c4ccccc4)[C@H]21)C3(C)C [docetaxel, Docetaxel]
- HMM cluster transition pattern [1]: conserved cluster transition pattern

Molecule: COc1cccc2c1C(=O)c1c(O)c3c(c(O)c1C2=O)C[C@@](O)(C(=O)CO)C[C@@H]3O[C@H]1C[C@H](N)[C@@H](O)[C@H](C)O1 [epirubicin, Epirubicin]
- HMM cluster transition pattern [1]: conserved cluster transition pattern
- temporal phenotype trajectory [1]: opposing trajectory from top to bottom

Molecule: CCc1c2c(nc3ccc(OC(=O)N4CCC(N5CCCCC5)CC4)cc13)-c1cc3c(c(=O)n1C2)COC(=O)[C@]3(O)CC [irinotecan, Irinotecan]
- HMM cluster transition pattern [1]: loses the autoregulatory loop of cluster 2
- temporal phenotype trajectory [1]: opposing trajectory from top to bottom

Molecule: O=C1[O][Pt]2([NH][C@@H]3CCCC[C@H]3[NH]2)[O]C1=O [oxaliplatin, Oxaliplatin]
- impact on organoid morphology (UMAP density heatmaps) ([1]; all three concentrations, highest: cisplatin 6, oxaliplatin 20, mitomycin C 0.03, 5-fluorouracil 20, gefitinib 0.5, irinotecan 5, docetaxel 0.0125, epirubicin 4.5 μM, vs DMSO control): limited impact on organoid morphology
- temporal phenotype trajectory ([1]; compared with DMSO trajectory): Predominant organoid growth
- relative toxicity ([1]; final timepoints, maximum concentration, 5 days filming): lower relative toxicity

Molecule: O=c1[nH]cc(F)c(=O)[nH]1 [5-fluorouracil]
- relative toxicity [1]: lower relative toxicity
- temporal phenotype trajectory [1]: milder toxicity
- phenotype cluster frequency over time (stacked barplots) [1]: approximately maintain the fraction of the cluster 2 large spherical organoid phenotype

Molecule: COc1cc2ncnc(Nc3ccc(F)c(Cl)c3)c2cc1OCCCN1CCOCC1 [gefitinib, Gefitinib]
- relative toxicity [1]: lower relative toxicity
- temporal phenotype trajectory [1]: milder toxicity
- phenotype cluster frequency over time (stacked barplots) [1]: approximately maintain the fraction of the cluster 2 large spherical organoid phenotype

B1: WNT3A: a potent inducer of WNT signaling, added to the ENR medium (protein, UniProt P56704 19-352, looked up)
Protein Wnt-3a: SYPIWWSLAVGPQYSSLGSQPILCASIPGLVPKQLRFCRNYVEIMPSVAEGIKIGIQECQHQFRGRRWNCTTVHDSLAIFGPVLDKATRESAFVHAIASAGVAFAVTRSCAEGTAAICGCSSRHQGSPGKGWKWGGCSEDIEFGGMVSREFADARENRPDARSAMNRHNNEAGRQAIASHMHLKCKCHGLSGSCEVKTCWWSQPDFRAIGDFLKDKYDSASEMVVEKHRESRGWVETLRPRYTYFKVPTERDLVYYEASPNFCEPNPETGSFGTRDRTCNVSSHGIDGCDLLCCGRGHNARAERRREKCRCVFHWCCYVSCQECTRVYDVHTCK
- impact on phenotype rescue (proportion of irregularly shaped to spherical organoids) ([2]; WNT3A restored on day 3): biggest impact
- organoid growth (cluster 6) ([2]; WNT3A restored on day 3): increased
- percentage of irregularly shaped organoids (cluster 7) ([2]; WNT3A restored on day 3): substantially reduced
- temporal phenotype trajectory ([2]; WNT3A restored on day 3): close overlap between day 3 WNT3A restoration and HOM conditions
- HMM cluster transition graph ([2]; WNT3A restored on day 6): best reflects the ENR-only condition
- impact on phenotype rescue (proportion of irregularly shaped to spherical organoids) ([2]; WNT3A restored on day 6): little impact
- HMM cluster transition graph ([2]; WNT3A restored on day 9): introduces two new transitions, cluster 5-to-3 and cluster 4-to-2
- impact on phenotype rescue (proportion of irregularly shaped to spherical organoids) ([2]; WNT3A restored on day 9): minimal impact
- formation of morphologically flattened irregular organoids ([2]; WNT3A restored to ENR medium at day 3): largely prevented
- induction of RSCs leading to morphologically irregular and flattened organoids in WNT-deprived ENR medium [3]: can be prevented
